Ki data for six molecules are collected here from US9399636B2, “Substituted dipyridylamines and uses thereof” (Genentech, Inc., priority 2012, dated 2016).

This assay addresses T1, DLK (Homo sapiens, UniProt Q12852).
T1 construct: N-terminally GST-tagged DLK (catalytic domain amino acid 1-520) (Carna Bioscience); GST (N); purchased Carna Bioscience
T1 sequence (Q12852 1-520): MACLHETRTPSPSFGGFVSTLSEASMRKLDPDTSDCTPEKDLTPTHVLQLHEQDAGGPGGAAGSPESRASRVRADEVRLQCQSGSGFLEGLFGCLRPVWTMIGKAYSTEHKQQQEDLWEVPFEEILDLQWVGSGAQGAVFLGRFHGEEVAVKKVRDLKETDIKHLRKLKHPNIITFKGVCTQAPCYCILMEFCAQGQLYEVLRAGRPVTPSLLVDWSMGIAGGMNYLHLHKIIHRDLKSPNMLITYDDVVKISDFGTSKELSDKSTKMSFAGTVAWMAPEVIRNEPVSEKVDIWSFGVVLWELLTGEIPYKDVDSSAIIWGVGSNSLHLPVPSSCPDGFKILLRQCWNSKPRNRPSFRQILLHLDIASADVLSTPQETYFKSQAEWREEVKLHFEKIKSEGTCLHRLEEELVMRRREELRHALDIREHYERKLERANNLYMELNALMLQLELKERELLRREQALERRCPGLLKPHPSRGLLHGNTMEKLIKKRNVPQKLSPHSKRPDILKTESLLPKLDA
The assay is described as follows: DLK TR-FRET assay. It counts as biochemical. The note with it: 5 nM GST-tagged DLK (catalytic domain amino acid 1-520), 40 nM HIS-tagged MKK4 K131M substrate, 30 μM ATP, 60 minutes. The gist of the method: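 Phosphorylation of HIS-tagged MKK4 K131M (40 nM) by GST-DLK aa 1-520 (5 nM) at 30 μM ATP, pH 7.5, run 60 min at ambient temperature. Compound series started at 20 uM, diluted 1:3. Phospho-MKK4 detected by TR-FRET (Eu cryptate/D2 antibodies, 3 h, EDTA-containing buffer).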
On the technique in general: In TR-FRET formats the signal depends on donor and acceptor labels being close together.

By Ki is commonly meant the equilibrium dissociation constant of an inhibitor or competing ligand from its target. Consider `CC(=O)N1CCC(c2cc(Nc3cc(C4CC4)ccn3)nc(N3CCC[C@H]3C)c2)CC1` [Example 142, 1-[6′-(4-Cyclopropyl-pyridin-2-ylamino)-2′-((R)-2-methyl-pyrrolidin-1-yl)-3,4,5,6-tetrahydro-2H-[4,4′]bipyridinyl-1-yl]-ethanone], for which the Ki was 22 nM.
The molecule `CC(=O)N1CCC(c2cc(Nc3cc(C(F)(F)F)ccn3)nc(N3CCC(F)(F)C3)c2)CC1` [Example 143, 1-[2′-(3,3-Difluoro-pyrrolidin-1-yl)-6′-(4-trifluoromethyl-pyridin-2-ylamino)-3,4,5,6-tetrahydro-2H-[4,4′]bipyridinyl-1-yl]-ethanone] had a Ki of 1.2 nM.
`Cc1ccnc(Nc2cc(C3CCNCC3)cc(N(C)CCO)n2)c1` [Example 144, 2-{Methyl-[6-(4-methyl-pyridin-2-ylamino)-1′,2′,3′,4′,5′,6′-hexahydro-[4,4′]bipyridinyl-2-yl]-amino}-ethanol]: the Ki worked out at 61 nM.
The molecule `Cc1ccc(Nc2cc(C3CCN(C(=O)C4CCCCC4)CC3)ccn2)nc1` [Example 145, cyclohexyl(4-(2-((5-methylpyridin-2-yl)amino)pyridin-4-yl)piperidin-1-yl)methanone] came in with a Ki of 3600 nM.
In the case of `O=C([C@@H]1CCCCN1)N1CCC(c2ccnc(Nc3ccccn3)c2)CC1` [Example 146, (S)-piperidin-2-yl(4-(2-(pyridin-2-ylamino)pyridin-4-yl)piperidin-1-yl)methanone] it was 2100 nM.
Regarding `Cc1ccnc(Nc2cc(C3CCN(C(=O)[C@@H]4CCCCN4)CC3)ccn2)c1` [Example 147, (S)-(4-(2-((4-methylpyridin-2-yl)amino)pyridin-4-yl)piperidin-1-yl)(piperidin-2-yl)methanone], affinity was put at a Ki of 1200 nM.
